Reference: patent US10457710B2, “Antimicrobial peptides, their variants and uses” (priority 2015, dated 2019)

Assays:
Assay in all cases: MIC, microdilution, clinical strains
Format in all cases: cell-based
[1] = tested on: clinical strains of Acinetobacter baumannii; parameters: unit: μg/ml; settings: 0.02% BSA, 0.2% acetic acid
Experimental: (§1) Minimum inhibition concetrations (MICs) were determined against Escherichia coli (ATCC 25922), Staphylococcus aureus (ATCC 25923), Klebsiella pneumoniae (ATCC 10031) and Pseudomonas aeruginosa (ATCC 27853). Also clinical strains of E. coli, K. pneumoniae, E. cloacae, P. aeruginosa, Serratia marcescens, Proteus mirabilis, S. pneumoniae, Acinetobacter baumannii, A. johnsonii and S. aureus were used for MICs assays. Additionally, clinical strains of yeast including Candida albicans, C. glabrata, C. parapsilosis and C. quillermondiae were used. The susceptibility of these microorganisms to Chain peptides were determined using micro broth dilution assay. Colonies of the respective microorganism from Muller Hinton (MH) agar plates incubated overnight were suspended in MH broth media and final concentration of microorganism was adjusted to 5.0×10^5 cfu/ml. An aliquot of 10 μl of each Chain peptide, or gentamicin, tetracycline as reference antibiotics were added in differing concentrations along with 90 μl of bacterial suspension to 96 well polypropylene plates and incubated at 37° C. for 20 to 24 hours. Concentrations of Chain peptides and reference antibiotics ranged from 0.125 to 128 μg/ml and the MICs were recorded as the lowest concentration with no visual growth of bacteria. Similarly, antifungal MICs were tested in Potato dextrose broth.
(§2) Clinical strains of yeasts including Candida albicans, C. glabrata, C. parapsilosis and C. quillermondiae were also tested with the 12 Chain peptides. The minimum inhibitory concentration (MICs) varied between these peptides and are presented in Tables 4a, 4b, 4c and 5a, 5b, 5c. Peptides Chain 105, 201 and 308 are broad spectrum antimicrobials with MICs between 0.5-32 μg/ml against all the bacteria and yeasts tested, except Serratia marcescens and Proteus mirabilis, against which the MICs were between 64-128 μg/ml. Peptide Chain 306 has narrow spectrum activity against E. coli at 1 μg/ml and for the rest of the bacterial strains at >32 μg/ml (FIG. 10c).

[2] = tested on: clinical strains of A. johnsonii; parameters: unit: μg/ml; settings: Acinetobacter johnsonii strain 1, Muller Hinton broth-cation adjusted, 0.02% BSA, 0.2% acetic acid
Experimental: as §1, §2

[3] = tested on: clinical strains of Proteus mirabilis; settings: 0.02% BSA, 0.2% acetic acid
Outline: (§3)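 Overnight MH agar colonies were suspended in MH broth to 5.0×10^5 cfu/ml, mixed with serial peptide dilutions (0.125–128 μg/ml) and incubated at 37° C for 20 to 24 hours. Yeast MICs were run the same way in potato dextrose broth, and wells were scored visually.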

[4] = tested on: clinical strains of K. pneumoniae; settings: 0.02% BSA, 0.2% acetic acid
Outline: as §3

[5] = tested on: clinical strains of Serratia marcescens; settings: 0.02% BSA, 0.2% acetic acid
Outline: as §3

[6] = tested on: clinical strains of S. aureus; settings: 0.02% BSA, 0.2% acetic acid
Outline: as §3

[7] = tested on: clinical strains of E. coli; settings: microdilution, Muller Hinton broth-cation adjusted, 0.02% BSA, 0.2% acetic acid
Outline: as §3

[8] = tested on: clinical strains of E. cloacae; settings: 0.02% BSA, 0.2% acetic acid
Outline: as §3

[9] = tested on: clinical strains of P. aeruginosa; settings: 0.02% BSA, 0.2% acetic acid
Outline: as §3

[10] = tested on: clinical strains of S. pneumoniae; settings: 0.02% BSA, 0.2% acetic acid
Outline: as §3

Gentamicin [reference compound]
Minimum inhibitory concentration ([1]; Acinetobacter baumannii strain 1, Muller Hinton broth-cation adjusted): 0.5 | Minimum inhibitory concentration ([1]; Acinetobacter baumannii strain 2, Muller Hinton broth-cation adjusted): 0.25 | Minimum inhibitory concentration ([1]; Acinetobacter baumannii strain 3, Muller Hinton broth-cation adjusted): 0.5 | Minimum inhibitory concentration ([1]; Acinetobacter baumannii strain 4, Muller Hinton broth-cation adjusted): 0.5 | Minimum inhibitory concentration ([1]; Acinetobacter baumannii strain 5, Muller Hinton broth-cation adjusted): 0.25 | Minimum inhibitory concentration [2]: 0.25 | Minimum inhibitory concentration ([3]; Proteus mirabilis strain 1, Muller Hinton broth-cation adjusted): 2 | Minimum inhibitory concentration ([3]; Proteus mirabilis strain 2, Muller Hinton broth-cation adjusted): 2 | Minimum inhibitory concentration ([3]; Proteus mirabilis strain 3, Muller Hinton broth-cation adjusted): >128 | Minimum inhibitory concentration ([3]; Proteus mirabilis strain 4, Muller Hinton broth-cation adjusted): 8 | Minimum inhibitory concentration ([3]; Proteus mirabilis strain 5, Muller Hinton broth-cation adjusted): >128 | Minimum inhibitory concentration ([4]; Klebsiella pneumoniae strain 1, Muller Hinton broth-cation adjusted): 2 | Minimum inhibitory concentration ([4]; Klebsiella pneumoniae strain 2, Muller Hinton broth-cation adjusted): 0.25 | Minimum inhibitory concentration ([4]; Klebsiella pneumoniae strain 3, Muller Hinton broth-cation adjusted): 2 | Minimum inhibitory concentration ([4]; Klebsiella pneumoniae strain 4, Muller Hinton broth-cation adjusted): 2 | Minimum inhibitory concentration ([4]; Klebsiella pneumoniae strain 5, Muller Hinton broth-cation adjusted): 4 | Minimum inhibitory concentration ([5]; Serratia marcescens strain 1, Muller Hinton broth-cation adjusted): 1 | Minimum inhibitory concentration ([5]; Serratia marcescens strain 2, Muller Hinton broth-cation adjusted): 2 | Minimum inhibitory concentration ([5]; Serratia marcescens strain 3, Muller Hinton broth-cation adjusted): 1 | Minimum inhibitory concentration ([5]; Serratia marcescens strain 4, Muller Hinton broth-cation adjusted): 1 | Minimum inhibitory concentration ([5]; Serratia marcescens strain 5, Muller Hinton broth-cation adjusted): 1 | Minimum inhibitory concentration ([6]; Staphylococcus aureus strain 1, Muller Hinton broth-cation adjusted): 0.5 | Minimum inhibitory concentration ([6]; Staphylococcus aureus strain 2, Muller Hinton broth-cation adjusted): 0.5 | Minimum inhibitory concentration ([6]; Staphylococcus aureus strain 3, Muller Hinton broth-cation adjusted): 0.5 | Minimum inhibitory concentration ([6]; Staphylococcus aureus strain 4, Muller Hinton broth-cation adjusted): 0.5 | Minimum inhibitory concentration ([6]; Staphylococcus aureus strain 5, Muller Hinton broth-cation adjusted): 0.5 | Minimum inhibitory concentration ([7]; Escherichia coli strain 1): 0.5 | Minimum inhibitory concentration ([7]; Escherichia coli strain 2): 0.5 | Minimum inhibitory concentration ([7]; Escherichia coli strain 3): 1 | Minimum inhibitory concentration ([7]; Escherichia coli strain 4): 1 | Minimum inhibitory concentration ([7]; Escherichia coli strain 5): 1 | Minimum inhibitory concentration ([8]; Enterobacter cloacae strain 1, Muller Hinton broth-cation adjusted): 0.25 | Minimum inhibitory concentration ([8]; Enterobacter cloacae strain 2, Muller Hinton broth-cation adjusted): 0.25 | Minimum inhibitory concentration ([8]; Enterobacter cloacae strain 3, Muller Hinton broth-cation adjusted): 0.25 | Minimum inhibitory concentration ([8]; Enterobacter cloacae strain 4, Muller Hinton broth-cation adjusted): 0.25 | Minimum inhibitory concentration ([8]; Enterobacter cloacae strain 5, Muller Hinton broth-cation adjusted): 0.25 | Minimum inhibitory concentration ([9]; Pseudomonas aeruginosa strain 1, Muller Hinton broth-cation adjusted): 1 | Minimum inhibitory concentration ([9]; Pseudomonas aeruginosa strain 2, Muller Hinton broth-cation adjusted): 0.5 | Minimum inhibitory concentration ([9]; Pseudomonas aeruginosa strain 3, Muller Hinton broth-cation adjusted): 0.5 | Minimum inhibitory concentration ([9]; Pseudomonas aeruginosa strain 4, Muller Hinton broth-cation adjusted): 0.5 | Minimum inhibitory concentration ([9]; Pseudomonas aeruginosa strain 5, Muller Hinton broth-cation adjusted): 0.25 | Minimum inhibitory concentration ([10]; Streptococcus pneumoniae strain 1, Muller Hinton broth-cation adjusted): 2 | Minimum inhibitory concentration ([10]; Streptococcus pneumoniae strain 2, Muller Hinton broth-cation adjusted): 2 | Minimum inhibitory concentration ([10]; Streptococcus pneumoniae strain 3, Muller Hinton broth-cation adjusted): 2 | Minimum inhibitory concentration ([10]; Streptococcus pneumoniae strain 4, Muller Hinton broth-cation adjusted): 2 | Minimum inhibitory concentration ([10]; Streptococcus pneumoniae strain 5, Muller Hinton broth-cation adjusted): 1
